Entries after “also recorded” stand apart in the source; their conditions may differ. Where no end group is shown, it is not given here.
Key:
HLA-A*0201 = biological target: T1, HLA-A*0201 (Homo sapiens, UniProt P04439, D140Y/D185E/D98H/E176V/E277Q/G131W/G231S/I119V/I121R/I166T/I218V/L300P/L318F/N151K/N90K/P208A/P217A/Q86G/Q94H/R138H/R169H/T345S); test: Relative affinity (RA) of peptides for HLA-A*0201 on T2 cells, flow cytometry with BB7.2; assay type: binding; conditions: low affinity = RA>5 and DC50<2 hours
T1 construct: prevent the expression at their surface of newly synthesized HLA-A*0201 molecules; endogenous in cells; host or cells: human T2 cells (TAP-deficient)
Method: (§1) The affinity of the selected peptides for HLA-A*0201 was defined by two parameters: the relative affinity (RA); which reflects the ability of the peptides to bind to HLA-A*0201, and the rate of dissociation of the HLA-A*0201/peptide complexes (DC50), which reflects their stability. The peptides with high affinity (RA<5 and DC50>2 hours) are potentially immunogenic, unlike the peptides with low affinity (RA>5 and DC50<2 hours).
Human T2 cells (FIRAT et al., Eur. J. Immunol., 29, 3112, 1999) (3×10^5 cells/ml), which are deficient in TAP transporters, are incubated at 37° C. for 16 hours with various concentrations (100 μM, 10 μM, 1 μM, 0.1 μM) of each test peptide in serum-free RPMI 1640 medium supplemented with 100 ng/ml of human β2-microglobulin. Next, they are washed twice and labeled with the monoclonal antibody BB7.2 (PARHAM et al., Hum. Immunol., 3, 4, 277-299, 1981) which is specific for the HLA-A*0201 molecule, and then with a goat anti-mouse Ig antibody coupled to fluorescein isothiocyanate (FITC).
The cells are then analyzed by flow cytometry. For each concentration of peptide, the specific HLA-A*0201 fluorescence is calculated as a percentage of the fluorescence obtained with 100 μM of a reference peptide (HIVpol 589; […] (SEQ ID No: 1)). The relative affinity (RA) is defined as the ratio of the concentration of each peptide that induces 20% of the fluorescence obtained with 100 μM of the reference peptide, to the concentration of the reference peptide that induces 20% of the fluorescence obtained with 100 μM of said reference peptide. The lower the relative affinity, the stronger the binding of the peptide to HLA-A*0201. The mean RA for each peptide is determined from at least three independent experiments. In all the experiments, 20% of the maximum fluorescence was obtained for 1 to 3 μM of the reference peptide.
The relative affinity (RA) of the selected variant peptides for HLA-A*0201 was measured as described in example 1.

[1] = biological target: T2, HLA-A*0201/peptide complexes (Homo sapiens, UniProt P04439, D140Y/D185E/D98H/E176V/E277Q/G131W/G231S/I119V/I121R/I166T/I218V/L300P/L318F/N151K/N90K/P208A/P217A/Q86G/Q94H/R138H/R169H/T345S); test: Stability of peptide/HLA-A*0201 complexes on T2 cells (DC50); assay type: binding
T2 construct: prevent the expression at their surface of newly synthesized HLA-A*0201 molecules; endogenous in cells; host or cells: human T2 cells (TAP-deficient)
Method: as §1
T2 cells (10^6/ml) are incubated overnight at 37° C. with 100 μM of each test peptide in serum-free RPMI 1640 medium supplemented with 100 ng/ml of human β2-microglobulin. Next, they are washed four times in order to remove the free peptides, incubated with Brefeldin A (SIGMA; 10 μg/ml) for one hour in order to prevent the expression at their surface of newly synthesized HLA-A*0201 molecules, washed and incubated at 37° C. for 0, 2, 4, 6 or 8 hours. For each incubation time, the cells are then labeled, as indicated above, with the BB7.2 antibody, and analyzed by flow cytometry in order to evaluate the amount of peptide/HLA-A*0201 complex present at their surface. This amount is evaluated by means of the formula: (mean fluorescence of the T2 cells preincubated with the peptide−mean fluorescence of the T2 cells treated under similar conditions in the absence of peptide). […]

HHD transgenic mice = test: Induction of specific CTLs in HHD transgenic mice by immunization with variant MAGE-A peptides; 51Cr cytotoxicity on peptide-loaded RMAS-HHD targets; assay type: in vivo; conditions: for CTL response generated by immunization with the variant peptide: HHD mice, 100 μg s.c. in Freund's incomplete adjuvant, RMAS-HHD targets, effector/target 40/1
Method: The immunogenicity of the variant peptides p174Y1V10, p262L2 and p248V9 was evaluated by generation of CTLs on HHD transgenic mice (PASCOLO et al., J. Exp. Med., 185, 2043, 1997). These mice are β2m−/−, D^b−/− and express an HLA-A*0201 single chain made up of the α1 and α2 domains of HLA-A*0201 and the α3 and intracellular domains of D^b, linked via its N-terminal to the C-terminal of human β2-microglobulin, via a peptide of 15 amino acids.
The HHD mice are given a subcutaneous injection at the base of the tail with 100 μg of each variant peptide to be tested, emulsified in Freund's incomplete adjuvant, in the presence of 140 μg of a T-helper epitope derived from the HBV “core” antigen (128-140, sequence […]).
After 11 days, spleen cells taken from the mice (5×10^7 cells in 10 ml) are stimulated in vitro with the test peptide (10 μM). On the 6th day of culture, the populations which respond are tested in order to determine a specific cytotoxicity. The cells which respond are restimulated in vitro at one-week intervals with 2×10^7 irradiated (3000 rads) HHD spleen cells and 1 to 0.1 μM of peptide in the presence of 50 IU/ml of recombinant IL2 (Proleukin, Chiron Corp).
Cytotoxicity assays are carried out 6 days after the final stimulation.
RMAS-HHD cells are used as targets to study the cytotoxicity. The cells are obtained by transfection of murine RMAS cells with the HHD construct as described by PASCOLO et al. (J. Exp. Med., 185, 2043, 1997).
These target cells are labeled with 100 μCi of ^51Cr for 90 minutes, and then washed three times and plated out in round-bottomed 96-well plates (3×10^3 cells/well in 100 μl of RPMI 1640+3% of fetal calf serum). They are loaded with various concentrations of test peptide (variant, native peptide, or irrelevant control peptide), at 37° C. for 90 minutes.
Next, 100 μl of the effector cells (effector cell/target cell ratio=40/1) are added to the wells and the plates are incubated at 37° C. for 4 hours. After incubation, 100 μl of supernatant are collected and the radioactivity is measured in a γ-counter.
The percentage of specific lysis is calculated by means of the formula: [(experimental ^51Cr release−spontaneous ^51Cr release)/(maximum ^51Cr release−spontaneous ^51Cr release)]×100. In all the experiments, the spontaneous release is less than 20% of the maximum release induced with 3N HCl.

[2] = tested on: COS-7 cells cotransfected with HHD construct and MAGE-A cDNA; test: Stimulation of CTL248 line (induced with p248V9) with transfected COS-7 cells expressing MAGE-A antigens, TNF-α secretion; assay type: cell-based, monkey
Method: A CTL line called CTL248 was established from the spleen cells of an HDD mouse immunized with the peptide p248V9, by repeated stimulation in vitro with decreasing concentrations of p248G9 (10 μM-1 μM). This line is maintained in culture in the presence of 1 μM of the peptide p248G9.
The cells of the CTL248 line are stimulated, for each of the MAGE-A1, -A2, -A3, -A4, -A6, -A10 and -A12 antigens, with monkey cos-7 cells cotransfected with the HAD construct (PASCOLO et al., mentioned above) and a plasmid containing the cDNA for said antigen. By way of negative controls, COS-7 cells transfected either with the HHD construct alone or with the cDNA for the MAGE-A antigen concerned are used. The stimulation of the CTLs is evaluated by measuring their secretion of TNF-α. […]
After incubation for 6 hours, the supernatant is removed and brought into contact with WEHI164 clone 13 mouse fibrosarcoma cells (3×10^4 per well), which are characterized by a high sensitivity to TNF-α-induced apoptosis. In order to quantify the amount of TNF in the culture supernatants, a standard range of TNF-α (concentrations of 0 to 10^4 pg/ml) is used in parallel. After incubation for 16 hours at 37° C., the viability of the WEHI-164 clone 13 cells is determined by means of an MTT colorimetric assay (SIGMA) (ESPEVIK and NISSEN MEYER, J. Immunol. Methods, 95, 99, 1986).

[3] = tested on: HLA-A*0201 human tumor cells expressing MAGE-A antigens (M44, M113, OBR); test: Stimulation of CTL248 line with HLA-A*0201 human tumor cells expressing MAGE-A antigens, TNF-α secretion; assay type: cell-based
Method: The following HLA-A*0201 tumor lines were used: • lines expressing at least one MAGE-A antigen: M44 and M113 (melanoma); OBR (bladder cancer); • lines not expressing MAGE-A antigens: MCF-7 (breast cancer) and Caco-2 (colon cancer).
The CTL248 line was stimulated with each of the tumor lines mentioned above.
The stimulation is evaluated by detecting the secretion of TNF-α as described above.
In order to confirm that the tumor cell recognition is indeed HLA-A*0201-restricted, the CTL248 cells were stimulated with M44 cells preincubated for one hour with an anti-HLA-A*0201 monoclonal antibody (BB7.2) or with an irrelevant antibody (anti-CD19), and the production of TNFα was measured as described above.

[4] = tested on: CD8+ cells from normal donors; test: Induction of specific human CTLs in vitro from PBMCs of normal donors with p248V9, intracellular IFNγ production; assay type: cell-based
Method: The ability of p248V9 to induce CTLs in vitro using peripheral blood mononuclear cells (PBMCs) from normal donors was tested as follows.
The PBMCs are obtained, from blood samples taken by leukocytapheresis on normal donors, after centrifugation at 2000 rpm for 20 min on a Ficoll/Hypaque (Amersham) gradient. After 3 washes in 0.9% NaCl, they are resuspended in complete medium (RPMI 1640 supplemented with 10% of heat-inactivated human AB serum, 40 μg/ml of gentamicin (Panpharma) and […] of L-glutamine (Gibco)), and incubated at 37° C. for 2 hours. After incubation, the non-adherent cells are removed. The adherent cells are differentiated into dendritic cells by culturing in a Teflon bag in a proportion of 3×10^6 cells/ml in complete medium supplemented with 500 IU/ml of GM-CSF (R & D Systems) and 500 IU/ml of IL-4 (R & D Systems). On the seventh day, maturing agents (100 ng/ml of polyI:C and 2 μg/ml of anti-CD40 antibody) are added to the culture. After 24 hours, the mature dendritic cells are loaded with the peptide p248V9 by incubation for 2 hours with 10 μM of peptide in the presence of 5 μg/ml of β2-microglobulin, and then irradiated at 3500 rads; they are then washed in order to remove the free peptide. CD8+ cells are isolated from the non-adherent cells by means of microbeads coupled to an anti-CD8 antibody (Miltenyi Biotec).
2×10^5 CD8+ cells are stimulated with 2×10^4 dendritic cells loaded with the peptide, in complete medium supplemented with 1000 IU/ml of IL-6 and 5 IU/ml of IL-12 in a final volume of 100 μl/well in a 96-well plate. From the seventh day, the cultures are stimulated in vitro each week with the dendritic cells loaded with the peptide, in the presence of 20 IU/ml of IL-2 and 10 ng/ml of IL-7. After the third restimulation, the CD8+ cells are collected and stimulated with EBV-transformed HLA-A*0201 allogenic B cells, in a 1/2 ratio, in the presence of 10 μM of peptide, for 16 hours.
The IFNγ-producing CD8+ cells are purified using a commercial kit (IFNγ secretion assay-cell enrichment and detection kit, Miltenyi Biotech). The cells thus purified are cultured for one week in complete medium supplemented with 20 IU/ml of IL-2 and 10 ng/ml of IL-7.
The response of these CD8+ cells to T2 cells loaded with one of the peptides p248V9, p248G9 or p248D9, or with a irrelevant peptide (HIVgag76), or to HLA-A*0201+MAGE-A+ tumor cells (M44 and M113) or HLA-A*0201+MAGE-A^− tumor cells (Caco-2), is evaluated by assaying the intracellular IFNγ production.
The CD8+ cells are incubated with the cells of the tumor line tested, in the presence of 20 μg/ml of Brefeldine-A (Sigma). […]
The cells are then analyzed by flow cytometry (FACSCalibur™ (Becton Dickinson) and CellQuest™ software).

Sequence: YEFLWGPRA (listed as Homo sapiens) [p262]
- affinity for HLA-A*0201 (in words) (HLA-A*0201): low affinity
- DC50 (time required for loss of 50% of HLA-A*0201/peptide complexes) ([1]; T2 cells loaded with 100 μM peptide, 37° C., 0-8 hours): <2 h
- recognition of RMAS-HHD targets loaded with the native peptide by CTLs induced with the corresponding variant (HHD transgenic mice; native peptide loaded on targets): not

Sequence: YLEYRQVPV (not fully specified) [p248V9]
- CTL response generated by immunization with the variant peptide (HHD transgenic mice): induces a CTL response directed not only against this variant but also against the two native peptides p248G9 and p248D9; also recorded: generates CTLs which kill the RMAS-HHD targets loaded with the variant peptide, or with the corresponding native peptide
- recognition of naturally processed MAGE-A epitope by CTLs induced with the peptide (COS-7 transfectants) [2]: recognize a naturally processed epitope common to the MAGE-A1, -A2, -A3, -A4, -A6, -A10 and -A12 antigens
- recognition of naturally processed MAGE-A epitope by CTLs induced with the peptide (HLA-A*0201 human tumor lines) [3]: recognize a naturally processed epitope common to the MAGE-A1, -A2, -A3, -A4, -A6, -A10 and -A12 antigens
- induction of human CTLs by the peptide ([4]; PBMCs from normal donors, peptide-loaded dendritic cells, intracellular IFNγ): induces human CTLs capable of also recognizing the corresponding native peptides, and capable of recognizing tumor cells expressing varied MAGE-A antigens
- response of p248V9-induced human CD8+ cells to T2 cells loaded with the peptide ([4]; intracellular IFNγ production): a response of the CD8+ cells

Sequence: YLGLSYDGLV (not fully specified) [p174Y1V10]
- stability of the complex formed with HLA-A*0201 (in words) [1]: appears to be insufficient
- CTL response generated by immunization with the variant peptide (HHD transgenic mice): not capable of generating a CTL response
